The test system of data set [1] is outer hair cells (OHCs) of p3 murine organ of Corti explants. Kind of data set: Toxicity of HDAC inhibitors in murine cochlear explants (OHC loss by hair cell counts). The data set is classed as cell-based, CBA/J mice. The text has this:
The culture procedures have been described in detail (Chen et al., [2009]). In brief, postnatal day 3 (p3) CBA/J pups were euthanized after antisepsis using 70% ethanol. Inner ears were extracted from surrounding tissue and immersed in cold Hank’s balanced salt solution. The lateral wall tissues (stria vascularis and spiral ligament) and the auditory nerve bundle were micro-dissected from the organ of Corti. The explants were placed onto a prepared culture dish containing a 15-μL polymerized drop of rat tail collagen in 1 mL of culture medium consisting of Basal Medium Eagle, 1% serum-free supplement (Invitrogen, Carlsbad, CA, USA), 1% bovine serum albumin, 5 mg/mL glucose, and 10 U/mL penicillin G. After 4 h of incubation (37°C, 5% CO2), an additional 1 mL of medium was added to submerge the explants.
The medium was then exchanged for new medium containing a final concentration of 4.5 μM GM with or without various concentrations of the HDAC inhibitors and incubated for 72 h. The stock solutions with 95 mM of SAHA/vorinostat (Cayman Chemical, Ann Arbor, MI, USA), 100 mM of belinostat (Selleckchem, Houson, TX, USA), and 100 mM of panobinostat (Cayman Chemical), were dissolved in 100% dimethyl sulfoxide (DMSO) and stored at −20°C. GM solution was made fresh from powder in culture medium at 0.2 mM and then diluted to the final concentration for each experiment.
Explants were fixed with 4% paraformaldehyde overnight at 4°C and permeabilized for 30 min with 3% Triton X-100 in phosphate-buffered saline (PBS) at room temperature (22–24°C). The specimens were then washed three times with PBS and incubated with rhodamine-phalloidin (Invitrogen) at a 1:100 dilution for 60 min at room temperature (22–24°C). After rinsing in PBS, the specimens were mounted on a slide with Gel-Mount™ (BioMeda Corp., Foster City, CA, USA). The phalloidin-stained stereociliary bundles and circumferential F-actin rings on the cuticular plate of OHCs allowed the determination of cells that were present or missing. A clear “V” shape of stereocilia indicates the presence of OHCs. If the “V” shape is not visualized, we accept this as a damaged hair cells. Cell populations were assessed on a Leitz Orthoplan upright microscope equipped for epifluorescence, using a 50× oil-immersion objective. […] Each successive 0.19-mm field was evaluated for the absence of OHCs beginning from the apex and moving down the organ of Corti to the base. The percentage of OHC loss was calculated.
In order to evaluate the protective potential of the three HDAC inhibitors on aminoglycoside-induced ototoxicity, we first determined their safety on auditory sensory hair cells using p3 murine organ of Corti explants. Explants were incubated for 2 days for recovery from the stress of dissection, followed by 72 h of incubation with or without inhibitors. Toxic effects were assessed by OHC loss. […] OHCs in the basal turn show changes in the orientation of the stereociliary bundles beginning with concentrations of 4 μM for SAHA, 3 μM for belinostat, and 20 nM for panobinostat.

In data set [2] the test system is mice. Further details: method as in Layman et al., 2015. The note with it: 100 mg/kg/day for 2 weeks, ref Layman et al., 2015; cited from earlier work.
In data set [3] the test system is CBA/J mice. In words: Kanamycin-induced hearing loss in CBA/J mice in vivo (ABR threshold shifts), chronic model. To be noted: SAHA 50 mg/kg IP twice daily for 15 days with KM 700 mg base/kg twice daily. The method, then:
Male CBA/J mice at the age of 5 weeks received subcutaneous (SQ) injections of KM at 700 mg base/kg (dissolved in saline) twice per day (AM and PM). SAHA for administration was dissolved in 100% DMSO for stock solutions of 50 mg/mL and diluted with saline immediately before intraperitoneal (IP) injection, for a final dose of 50 mg/kg, given twice per day for 15 days. The concentration of DMSO vehicle control was 1 mL/kg body weight. All solutions were filtered with a syringe filter before injection. Body weight was measured before each injection.
ABRs were measured 3 days before and 3 weeks after drug treatments. Animals were anesthetized with IP injections of ketamine (100 mg/kg) and xylazine (10 mg/kg) for mice or ketamine (58.8 mg/kg), xylazine (2.4 mg/kg), and acepromazine (1.2 mg/kg) for guinea pigs. Body temperature was maintained near 37°C with a heating pad. ABRs were measured at 12 and 32 kHz for guinea pigs or 8, 16, and 32 kHz for mice in a sound-isolated and electrically shielded booth (Acoustic Systems, Austin, TX, USA). Sub-dermal electrodes were inserted at the vertex of the skull, under the left ear and under the right ear (ground). Tucker Davis Technology System III hardware and SigGen/Biosig software were used to present the stimuli monaurally (15 ms duration tone bursts with 1 ms rise-fall time) through a Beyer earphone attached to a customized plastic speculum inserted into the ear canal. Up to 1024 responses were averaged for each stimulus level. Thresholds (the lowest stimulus level with a reproducible response) were determined by reducing the intensity in 10-dB steps and then in 5-dB steps approaching the threshold until no organized response was detected. Thresholds were evaluated based on ABR wave I. Scores were given by an expert blinded to experimental conditions between the highest stimulus level without a response and the lowest stimulus level where an organized response was observed. All ABR measurements were conducted by the same experimenter. […]

Regarding `O=C(CCCCCCC(=O)Nc1ccccc1)NO` [SAHA, vorinostat], the “loss of OHCs” value in data set [1] (8 μM, 72 h) is 100%. Besides, the “concentration at which changes in orientation of stereociliary bundles of basal-turn OHCs begin” value in data set [1] (72 h incubation) is 4 µM. In addition, the “TD50 (median toxic dose, concentration leading to 50% OHC loss)” value in data set [1] (p3 murine explants, 72 h incubation) stood at 5.5 µM. For the same compound, the ototoxicity entry in data set [2] was “no ototoxicity”. Besides, in data set [3], the “effect on KM-induced auditory threshold shifts” value was “did not attenuate”.

Source of the values: publication PMC5660723, “Histone Deacetylase Inhibitors Are Protective in Acute but Not in Chronic Models of Ototoxicity” (Frontiers in Cellular Neuroscience, 2017).
